Bounds are passed on as bounds.

The first assay deals with T1, mutant MGL (Homo sapiens, UniProt Q99685, L169S/L176S).
T1 sequence (Q99685 1-303 L169S/L176S): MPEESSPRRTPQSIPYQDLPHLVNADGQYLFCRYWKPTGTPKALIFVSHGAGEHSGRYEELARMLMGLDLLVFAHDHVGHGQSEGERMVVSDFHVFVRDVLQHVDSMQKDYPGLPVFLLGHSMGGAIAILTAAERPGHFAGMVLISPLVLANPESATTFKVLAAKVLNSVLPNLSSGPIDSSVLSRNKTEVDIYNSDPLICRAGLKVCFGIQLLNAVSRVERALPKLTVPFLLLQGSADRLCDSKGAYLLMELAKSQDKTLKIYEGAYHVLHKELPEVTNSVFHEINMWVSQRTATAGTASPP
Kind of assay: MGL ThermoFluor assay - mutant. It is filed as binding. The note with it: ThermoFluor concentration-response, read-out: MGL mutant ThermoFluor Kd. On the technique in general: Differential scanning fluorimetry follows unfolding on heating by fluorescence.
As for `COc1cc(C(=O)N2CC(N3CCN(C(=O)c4cscn4)CC3)C2)ccc1Br` [Cpd 23, 1-{1-[(4-Bromo-3-methoxyphenyl)carbonyl]azetidin-3-yl}-4-(1,3-thiazol-4-ylcarbonyl)piperazine], the Kd amounted to 5000 nM.
Regarding `O=C(c1ccccc1)N1CCN(C2CN(C(=O)c3ccc(NCc4ccc5ccccc5c4)cc3)C2)CC1` [Cpd 491, N-(Naphthalen-2-ylmethyl)-4-({3-[4-(phenylcarbonyl)piperazin-1-yl]azetidin-1-yl}carbonyl)aniline], the Kd worked out at 100 nM.
With `CC(C)(C)OC(=O)Nc1ccc(C(=O)N2CC(N3CCN(C(=O)c4ccccc4)CC3)C2)cc1` [Cpd 496, tert-Butyl [4-({3-[4-(phenylcarbonyl)piperazin-1-yl]azetidin-1-yl}carbonyl)phenyl]carbamate], the Kd worked out at 287 nM.
Consider `O=C(c1ccccc1)N1CCN(C2CN(C(=O)c3ccc(Oc4ccc(Cl)cc4)cc3)C2)CC1` [Cpd 425], for which the Kd stood at 200 nM.
For `COc1cc(NCc2ccccc2)c(Cl)cc1C(=O)N1CC(N2CCN(C(=O)c3ccccc3)CC2)C1` [Cpd 529], the Kd worked out at 317 nM.
Regarding `CC(C)(C)OC(=O)N1CCC(c2ccccc2C(=O)N2CC(N3CCN(C(=O)c4ccccc4)CC3)C2)C1` (centres unmarked) [Cpd 111, tert-Butyl 3-[2-({3-[4-(phenylcarbonyl)piperazin-1-yl]azetidin-1-yl}carbonyl)phenyl]pyrrolidine-1-carboxylate], the Kd amounted to 10000 nM.
`O=C(Nc1cccc(C(=O)N2CC(N3CCN(C(=O)c4ccccc4)CC3)C2)c1)C1CCCCC1` [Cpd 539, N-[3-({3-[4-(Phenylcarbonyl)piperazin-1-yl]azetidin-1-yl}carbonyl)phenyl]cyclohexanecarboxamide]: the Kd is above 31200 nM.
On to `O=C(c1ccc(Oc2ccccn2)cc1)N1CC(N2CCN(C(=O)c3cscn3)CC2)C1` [Cpd 922], for which the Kd stood at 3890 nM.
With `O=C(c1ccc(C2CCCCC2)cc1)N1CC(N2CCN(C(=O)c3ccccn3)CC2)C1` [Cpd 4, 1-{1-[(4-Cyclohexylphenyl)carbonyl]azetidin-3-yl}-4-(pyridin-2-ylcarbonyl)piperazine], the Kd turned out to be 143 nM.
Consider `O=C(c1ccccc1)N1CCN(C2CN(C(=O)C3CCC(C(F)(F)F)CC3)C2)CC1` (centres unmarked) [Cpd 502], for which the Kd is above 76700 nM.
Regarding `O=C(c1ccccc1)N1CCN(C2CN(C(=O)c3cccc(NCc4ccccc4)c3)C2)CC1` [Cpd 531, N-Benzyl-3-({3-[4-(phenylcarbonyl)piperazin-1-yl]azetidin-1-yl}carbonyl)aniline], the Kd is 2730 nM.
In the case of `O=C(c1ccccc1)N1CCN(C2CN(C(=O)c3cccc(CNc4ccccc4F)c3)C2)CC1` [Cpd 561], the Kd turned out to be 542 nM.
For `O=C(c1cnon1)N1CC(N2CCN(C(=O)c3cc4cc(C(F)(F)F)ccc4s3)CC2)C1` [Cpd 921, 1-[1-(1,2,5-Oxadiazol-3-ylcarbonyl)azetidin-3-yl]-4-{[5-(trifluoromethyl)-1-benzothiophen-2-yl]carbonyl}piperazine], the Kd is 4260 nM.
As for `O=C(c1ccc(Oc2ccc(Cl)cc2)cc1)N1CC(N2CCN(C(=O)c3nccs3)CC2)C1` [Cpd 420, 1-(1-{[4-(4-Chlorophenoxy)phenyl]carbonyl}azetidin-3-yl)-4-(1,3-thiazol-2-ylcarbonyl)piperazine], the Kd is 5 nM.
Still for that read-out and setting: for `O=C(c1ccc(-c2ccccc2)cc1)N1CC(N2CCN(C(=O)c3cncs3)CC2)C1` [Cpd 8, 1-[1-(Biphenyl-4-ylcarbonyl)azetidin-3-yl]-4-(1,3-thiazol-5-ylcarbonyl)piperazine] the value was 111 nM; for `O=C(c1ccccc1)N1CCN(C2CN(C(=O)c3ccc(-c4ccccc4)cc3)C2)C(CO)C1` (centres unmarked) [Cpd 458, {1-[1-(Biphenyl-4-ylcarbonyl)azetidin-3-yl]-4-(phenylcarbonyl)piperazin-2-yl}methanol], 6670 nM.
Take `O=C(c1ccc2c(ccn2C(=O)c2ccc3c(c2)CCN3)c1)N1CC(N2CCN(C(=O)c3nccs3)CC2)C1` [Cpd 988, 1-(2,3-Dihydro-1H-indol-5-ylcarbonyl)-5-({3-[4-(1,3-thiazol-2-ylcarbonyl)piperazin-1-yl]azetidin-1-yl}carbonyl)-1H-indole]: the Kd turned out to be 40 nM.
In the case of `O=C(c1ccccc1)N1CCN(C2CN(C(=O)c3ccc(-n4cccc4)cc3)C2)CC1` [Cpd 28, 1-(Phenylcarbonyl)-4-(1-{[4-(1H-pyrrol-1-yl)phenyl]carbonyl}azetidin-3-yl)piperazine], the Kd is 370 nM.
For the compound `O=C(c1ccccc1)N1CCN(C2CN(C(=O)c3ccc(CNc4ccc(F)c(F)c4F)cc3)C2)CC1` [Cpd 557], the Kd was determined as 114 nM.
Consider `O=C(c1ccccc1)N1CCN(C2CN(C(=O)C3CCC(c4ccccc4)CC3)C2)CC1` (centres unmarked) [Cpd 106, 1-(Phenylcarbonyl)-4-{1-[(4-phenylcyclohexyl)carbonyl]azetidin-3-yl}piperazine], for which the Kd worked out at 154 nM.
For the compound `O=C(c1ccc(CS(=O)(=O)c2cccc(C(F)(F)F)c2)cc1)N1CC(N2CCN(C(=O)c3cscn3)CC2)C1` [Cpd 977], the Kd amounted to 20000 nM.
Still for that read-out and setting: the same measure for `O=C(c1nccs1)N1CCN(C2CN(C(=O)c3cc(Br)ccc3F)C2)CC1` [Cpd 915]: 5000 nM; for `N#Cc1cccc(-c2ccc(C(=O)N3CC(N4CCN(C(=O)c5ccccc5)CC4)C3)cc2)c1` [Cpd 76, 4′-({3-[4-(Phenylcarbonyl)piperazin-1-yl]azetidin-1-yl}carbonyl)biphenyl-3-carbonitrile]: 333 nM.
The same measure, in the same setting: the same measure for `O=C(c1ccc(SCc2ccc(Cl)c(Cl)c2)cc1)N1CC(N2CCN(C(=O)c3nccs3)CC2)C1` [Cpd 414, 1-[1-({4-[(3,4-Dichlorobenzyl)sulfanyl]phenyl}carbonyl)azetidin-3-yl]-4-(1,3-thiazol-2-ylcarbonyl)piperazine]: 25 nM; for `O=C(c1ccccc1)N1CCN(C2CN(C(=O)c3ccc(SCc4ccc(Cl)c(Cl)c4)cc3)C2)CC1` [Cpd 417]: 66.7 nM.
Consider `O=C(c1ccccc1)N1CCN(C2CN(C(=O)c3ccc(NC4CCC(F)(F)CC4)cc3)C2)CC1` [Cpd 530], for which the Kd stood at 89 nM.
As to `Cc1ccc(Sc2ncccc2C(=O)N2CC(N3CCN(C(=O)c4cscn4)CC3)C2)cc1` [Cpd 479], the Kd is 6670 nM.
Turning to `Cc1nc(-c2cccc(Cl)c2)sc1C(=O)N1CC(N2CCN(C(=O)c3ccccc3)CC2)C1` [Cpd 620, 1-(1-{[2-(3-Chlorophenyl)-4-methyl-1,3-thiazol-5-yl]carbonyl}azetidin-3-yl)-4-(phenylcarbonyl)piperazine], the Kd was found to be 154 nM.
In the case of `O=C(c1ccccc1)N1CCN(C2CN(C(=O)c3cnn(-c4ccccc4)c3C(F)(F)F)C2)CC1` [Cpd 626, 1-(Phenylcarbonyl)-4-(1-{[1-phenyl-5-(trifluoromethyl)-1H-pyrazol-4-yl]carbonyl}azetidin-3-yl)piperazine], the Kd came to 5020 nM.
Same read-out and setting: the same measure for `O=C(c1ccccc1)N1CCN(C2CN(C(=O)c3ccc(F)cc3)C2)CC1` [Cpd 49, 1-{1-[(4-Fluorophenyl)carbonyl]azetidin-3-yl}-4-(phenylcarbonyl)piperazine]: 6670 nM.

The same assay, now with this note: ThermoFluor thermal stability binding assay, read-out: MGL mutant ThermoFluor Kd.
For `O=C(c1ccccc1)N1CCN(C2CN(C(=O)c3ccc(OCc4cncc(Cl)c4)cc3)C2)CC1` [Cpd 554], the Kd amounted to 1990 nM.
Still for that read-out and setting: the same measure for `O=C(c1ccc(OCc2cccc(Cl)c2Cl)c(F)c1)N1CC(N2CCN(C(=O)c3nccs3)CC2)C1` [Cpd 405, 1-[1-({4-[(2,3-Dichlorobenzyl)oxy]-3-fluorophenyl}carbon-yl)azetidin-3-yl]-4-(1,3-thiazol-2-ylcarbonyl)piperazine]: 2 nM; for `N#Cc1csc(C(=O)N2CCN(C3CN(C(=O)c4ccc(-c5ccccc5)cc4)C3)CC2)c1` [Cpd 309]: 253 nM; for `CS(=O)(=O)c1cccc(-c2ccc(C(=O)N3CC(N4CCN(C(=O)c5cscn5)CC4)C3)cc2)c1` [Cpd 236, 1-(1-{[3′-(Methylsulfonyl)biphenyl-4-yl]carbonyl}azetidin-3-yl)-4-(1,3-thiazol-4-ylcarbonyl)piperazine]: 200 nM.
On the same count and under the same terms, for `O=C(c1cscn1)N1CCN(C2CN(C(=O)c3cccc4nc(-c5ccc(Cl)cc5)oc34)C2)CC1` [Cpd 1380, 2-(4-Chlorophenyl)-7-({3-[4-(1,3-thiazol-4-ylcarbonyl)piperazin-1-yl]azetidin-1-yl}carbonyl)-1,3-benzoxazole] the value was 246 nM; for `O=C(c1ccccc1)N1CCN(C2CN(C(=O)c3ccc4oc(-c5ccccc5)nc4c3)C2)CC1` [Cpd 132], 250 nM; for `N#CC=Cc1cccc(-c2ccc(C(=O)N3CC(N4CCN(C(=O)c5nccs5)CC4)C3)cc2)c1` [Cpd 223, 3-[4′-({3-[4-(1,3-Thiazol-2-ylcarbonyl)piperazin-1-yl]azetidin-1-yl}carbonyl)biphenyl-3-yl]prop-2-enenitrile], 6.7 nM.
Take `O=C(c1ccc(-c2ccccc2)cc1)N1CC(N2CCN(C(=O)c3cnon3)CC2)C1` [Cpd 308]: the Kd was determined as 10000 nM.
As to `O=C(c1cscn1)N1CCN(C2CN(C(=O)c3nc(-c4ccccc4)oc3C(F)(F)F)C2)CC1` [Cpd 1403], the Kd amounted to 1690 nM.
In the case of `CS(=O)(=O)c1cccc(-c2ccc(C(=O)N3CC(N4CCN(C(=O)c5ccccc5)CC4)C3)cc2)c1` [Cpd 231, 1-(1-{[3′-(Methylsulfonyl)biphenyl-4-yl]carbonyl}azetidin-3-yl)-4-(phenylcarbonyl)piperazine], the Kd turned out to be 143 nM.

The assay is the same for the next values; noted with them: ThermoFluor, compound concentration measured by qNMR, read-out: MGL mutant ThermoFluor qKd (using qNMR conc.).
For the compound `Cc1ccnc(-n2ccc3cc(C(=O)N4CC(N5CCN(C(=O)C(F)(F)F)CC5)C4)ccc32)c1` [Cpd 1199, 1-(4-Methylpyridin-2-yl)-5-({3-[4-(trifluoroacetyl)piperazin-1-yl]azetidin-1-yl}carbonyl)-1H-indole], the Kd amounted to 264 nM.

For the origin of these results see patent US8362000B2, “Azetidinyl diamides as monoacylglycerol lipase inhibitors” (Janssen Pharmaceutica NV, priority 2009, dated 2013).
